Measurements taken from patent US20260226073A1 (AURIGENE ONCOLOGY LIMITED, priority 2023, published 2026).
pEC50, pIC50: −log10 of the molar value.

How the values were obtained:
[1] = target: T1, human recombinant CBL-b (human Biotin CBL-b recombinant protein a.a. 39-426) (Homo sapiens, UniProt Q13191); assay: Biochemical assay for CBL-b inhibition (ligand displacement TR-FRET); type: binding; details: 50 nM CBL-b, 0.3 μM Bodipy FL-Probe, read-out: IC50 (CBL-b inhibition, group)
T1 construct: human Biotin CBL-b recombinant protein a.a; 39-426; Biotin (biotinylated); made in house
Method in brief: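 Biotinylated CBL-b (a.a. 39-426, 50 nM final) pre-incubated with compound 60 min at RT in HEPES/NaCl/Triton/BSA/TCEP buffer, then Bodipy FL probe (0.3 μM final) 60 min, then terbium-streptavidin 60 min. TR-FRET read at 665/615 nm; IC50 and % max inhibition from sigmoidal fits.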

[2] = system: NFAT signaling pathway in Jurkat NFAT reporter cells; assay: Jurkat NFAT reporter assay; type: cell-based; details: Homo sapiens, 30 min with compound, then soluble anti-human CD3/CD28 antibody for 6 hours, luciferase readout, read-out: EC50 (Group)
Method: A human T lymphocyte Jurkat reporter cell line was further used to assess activation of the nuclear factor of activated T-cells (NFAT) signaling pathway by Cbl-b inhibitors. The reporter cell line is a genetically engineered Jurkat T cell line that expresses a luciferase reporter driven by an NFAT-response element (NFAT-RE). The Cbl-b inhibitor was incubated with 1×10^5 Jurkat NFAT reporter cells per well for 30 minutes. Subsequently, cells were stimulated with soluble anti-human CD3/CD28 antibody for 6 hours resulting in NFAT-RE-mediated luminescence. The bioluminescent signal is detected and quantified using Bio-Glo™ Luciferase Assay System. Readouts were reported as fold change over baseline. Here, baseline was the measurement obtained from Jurkat NFAT reporter cells stimulated with anti-CD3 antibody and anti-CD28 antibody, where the cells were not incubated with a Cbl-b inhibitor.

T1 sequence (Q13191 39-426): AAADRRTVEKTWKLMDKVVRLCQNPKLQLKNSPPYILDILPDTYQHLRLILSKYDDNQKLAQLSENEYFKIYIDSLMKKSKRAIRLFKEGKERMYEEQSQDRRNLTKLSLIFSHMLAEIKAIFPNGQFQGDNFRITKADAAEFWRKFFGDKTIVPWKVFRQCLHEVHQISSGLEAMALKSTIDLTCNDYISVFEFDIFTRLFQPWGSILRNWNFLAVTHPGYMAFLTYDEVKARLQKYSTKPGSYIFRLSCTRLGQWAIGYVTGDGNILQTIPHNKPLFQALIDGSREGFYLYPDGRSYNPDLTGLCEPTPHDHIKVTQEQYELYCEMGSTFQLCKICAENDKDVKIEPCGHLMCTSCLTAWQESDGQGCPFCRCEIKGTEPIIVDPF

Row | Compound | pIC50 [1] | pEC50 [2]
1 | Cn1cnnc1CC1(c2ccc3c(c2)C(=O)N(c2cc(CN4CCC[C@H](O)C4)cc(C(F)(F)F)n2)C3)COC1 [Compound 30, (S)-2-(4-((3-Hydroxypiperidin-1-yl)methyl)-6-(trifluoromethyl)pyridin-2-yl)-6-(3-((4-methyl-4H-1,2,4-triazol-3-yl)methyl)oxetan-3-yl)isoindolin-1-one] | 5.30 to 6.52 | 5.00 to 6.00
2 | Cn1cnnc1CC1(c2ccc3c(c2)C(=O)N(c2cc(CN4CCc5ccccc5C4)cc(C(F)(F)F)n2)C3)COC1 [Compound 31, 2-(4-((3,4-Dihydroisoquinolin-2(1H)-yl)methyl)-6-(trifluoromethyl)pyridin-2-yl)-6-(3-((4-methyl-4H-1,2,4-triazol-3-yl)methyl)oxetan-3-yl)isoindolin-1-one] | 5.30 to 6.52 | 5.00 to 6.00
3 | Cn1cnnc1CC1(c2ccc3c(c2)C(=O)N(c2cc(CN4CCCC(F)C4)cc(C(F)(F)F)n2)C3)COC1 (centres unmarked) [Compound 33, 2-(4-((3-Fluoropiperidin-1-yl)methyl)-6-(trifluoromethyl)pyridin-2-yl)-6-(3-((4-methyl-4H-1,2,4-triazol-3-yl)methyl)oxetan-3-yl)isoindolin-1-one] | 5.30 to 6.52 | 5.00 to 6.00
4 | CC1CCCCN1Cc1cc(N2Cc3ccc(C4(Cc5nncn5C)COC4)cc3C2=O)nc(C(F)(F)F)c1 (centres unmarked) [Compound 45, 6-(3-((4-Methyl-4H-1,2,4-triazol-3-yl)methyl)oxetan-3-yl)-2-(4-((2-methyl-piperidin-1-yl)methyl)-6-(trifluoromethyl)pyridin-2-yl)isoindolin-1-one] | 5.30 to 6.52 | 5.00 to 6.00
5 | C[C@@H]1CN(Cc2cc(N3Cc4ccc(C5(Cc6nncn6C)COC5)cc4C3=O)nc(C(F)(F)F)c2)CCO1 [Compound 46, (R)-6-(3-((4-Methyl-4H-1,2,4-triazol-3-yl)methyl)oxetan-3-yl)-2-(4-((2-methyl-morpholino)methyl)-6-(trifluoromethyl)pyridin-2-yl)isoindolin-1-one] | 5.30 to 6.52 | 5.00 to 6.00
6 | Cn1cnnc1CC1(c2ccc3c(c2)C(=O)N(c2cc(CN4CCCC(F)(F)C4)cc(C(F)(F)F)n2)C3)COC1 [Compound 47, 2-(4-((3,3-Difluoropiperidin-1-yl)methyl)-6-(trifluoromethyl)pyridin-2-yl)-6-(3-((4-methyl-4H-1,2,4-triazol-3-yl)methyl)oxetan-3-yl)isoindolin-1-one] | 6.52 to 7.10 | 5.00 to 6.00
7 | Cn1cnnc1CC1(c2ccc3c(c2)C(=O)N(c2cc(CN4CCC(F)(F)CC4)cc(C(F)(F)F)n2)C3)COC1 [Compound 48, 2-(4-((4,4-Difluoropiperidin-1-yl)methyl)-6-(trifluoromethyl)pyridin-2-yl)-6-(3-((4-methyl-4H-1,2,4-triazol-3-yl)methyl)oxetan-3-yl)isoindolin-1-one] | 6.52 to 7.10 | 6.00 to 6.52
8 | C[C@H]1CCCN(Cc2cc(CC3CC3)cc(N3Cc4ccc(C5(Cc6nncn6C)COC5)cc4C3=O)c2)C1 [Compound 49, (S)-2-(3-(Cyclopropylmethyl)-5-((3-methylpiperidin-1-yl)methyl)phenyl)-6-(3-((4-methyl-4H-1,2,4-triazol-3-yl)methyl)oxetan-3-yl)isoindolin-1-one] | 6.52 to 7.10 | 6.00 to 6.52
9 | Cn1cnnc1CC1(c2ccc3c(c2)C(=O)N(c2cc(CN4CC5(CCC5)C4)cc(C(F)(F)F)n2)C3)COC1 [Compound 51, 2-(4-((2-Azaspiro[3.3]heptan-2-yl)methyl)-6-(trifluoromethyl)pyridin-2-yl)-6-(3-((4-methyl-4H-1,2,4-triazol-3-yl)methyl)oxetan-3-yl)isoindolin-1-one] | 5.30 to 6.52 | 5.00 to 6.00
10 | C[C@H]1CCCN(Cc2cc(Cl)nc(N3Cc4ccc([C@]5(c6nncn6C)C[C@@H](C)C5)cc4C3=O)c2)C1 [Compound 58, 2-(6-Chloro-4-(((S)-3-methylpiperidin-1-yl)methyl)pyridin-2-yl)-6-((1s,3R)-3-methyl-1-(4-methyl-4H-1,2,4-triazol-3-yl)cyclobutyl)isoindolin-1-one] | 5.30 to 6.52 | 5.00 to 6.00
11 | Cn1cnnc1CC1(c2ccc3c(c2)C(=O)N(c2cc(CN4CC[C@H](F)C4)cc(C(F)(F)F)n2)C3)COC1 [Compound 61, (S)-2-(4-((3-Fluoropyrrolidin-1-yl)methyl)-6-(trifluoromethyl)pyridin-2-yl)-6-(3-((4-methyl-4H-1,2,4-triazol-3-yl)methyl)oxetan-3-yl)isoindolin-1-one] | 5.30 to 6.52 | 5.00 to 6.00

Results, then the molecule that gave them:

Row | pIC50 [1] | pEC50 [2] | Compound
12 | 6.52 to 7.10 | 6.00 to 6.52 | Cc1cc(CNCC2CC2(F)F)cc(N2Cc3ccc(C4(Cc5nncn5C)COC4)cc3C2=O)c1 (centres unmarked) [Compound 20, 2-(3-((((2,2-Difluorocyclopropyl)methyl)amino)methyl)-5-methylphenyl)-6-(3-((4-methyl-4H-1,2,4-triazol-3-yl)methyl)oxetan-3-yl)isoindolin-1-one]
13 | 6.52 to 7.10 | 5.00 to 6.00 | Cc1cc(N2Cc3ccc(C4(Cc5nncn5C)COC4)cc3C2=O)cc(CN2CCC[C@H](C)C2)n1 [Compound 23, (S)-6-(3-((4-Methyl-4H-1,2,4-triazol-3-yl)methyl)oxetan-3-yl)-2-(2-methyl-6-((3-methylpiperidin-1-yl)methyl)pyridin-4-yl)isoindolin-1-one]
14 | > 7.10 | > 6.52 | Cc1cc(CN2CCC[C@H](C)C2)cc(N2Cc3ccc(C4(Cc5nncn5C)COC4)cc3C2=O)n1 [Compound 26, (S)-2-(6-Methyl-4-((3-methylpiperidin-1-yl)methyl)pyridin-2-yl)-6-(3-((4-methyl-4H-1,2,4-triazol-3-yl)methyl)oxetan-3-yl)isoindolin-1-one]
15 | > 7.10 | > 6.52 | Cn1cnnc1CC1(c2ccc3c(c2)C(=O)N(c2cc(CN4CCC[C@H](C(F)(F)F)C4)cc(C(F)(F)F)n2)C3)COC1 [Compound 27, (S)-6-(3-((4-Methyl-4H-1,2,4-triazol-3-yl)methyl)oxetan-3-yl)-2-(6-(trifluoro-methyl)-4-((3-(trifluoromethyl)piperidin-1-yl)methyl)pyridin-2-yl)isoindolin-1-one]
16 | 6.52 to 7.10 | 6.00 to 6.52 | CC1CN(Cc2cc(N3Cc4ccc(C5(Cc6nncn6C)COC5)cc4C3=O)nc(C(F)(F)F)c2)CCC1(F)F (centres unmarked) [Compound 28, 2-(4-((4,4-Difluoro-3-methylpiperidin-1-yl)methyl)-6-(trifluoromethyl)pyridin-2-yl)-6-(3-((4-methyl-4H-1,2,4-triazol-3-yl)methyl)oxetan-3-yl)isoindolin-1-one]
17 | 6.52 to 7.10 | 5.00 to 6.00 | Cn1cnnc1CC1(c2ccc3c(c2)C(=O)N(c2cc(CN4CCCC(C#N)C4)cc(C(F)(F)F)n2)C3)COC1 (centres unmarked) [Compound 29, 1-((2-(6-(3-((4-Methyl-4H-1,2,4-triazol-3-yl)methyl)oxetan-3-yl)-1-oxoisoindo-lin-2-yl)-6-(trifluoromethyl)pyridin-4-yl)methyl)piperidine-3-carbonitrile]
18 | 6.52 to 7.10 | 6.00 to 6.52 | C[C@H]1CCN(Cc2cc(N3Cc4ccc(C5(Cc6nncn6C)COC5)cc4C3=O)nc(C(F)(F)F)c2)C1 [Compound 34, (S)-6-(3-((4-Methyl-4H-1,2,4-triazol-3-yl)methyl)oxetan-3-yl)-2-(4-((3-methyl-pyrrolidin-1-yl)methyl)-6-(trifluoromethyl)pyridin-2-yl)isoindolin-1-one]
19 | 6.52 to 7.10 | 5.00 to 6.00 | Cn1cnnc1CC1(c2ccc3c(c2)C(=O)N(c2cc(CN4CCCC(CO)C4)cc(C(F)(F)F)n2)C3)COC1 (centres unmarked) [Compound 37, 2-(4-((3-(Hydroxymethyl)piperidin-1-yl)methyl)-6-(trifluoromethyl)pyridin-2-yl)-6-(3-((4-methyl-4H-1,2,4-triazol-3-yl)methyl)oxetan-3-yl)isoindolin-1-one]
20 | > 7.10 | 6.00 to 6.52 | C[C@H]1C[C@H](C)CN(Cc2cc(N3Cc4ccc(C5(Cc6nncn6C)COC5)cc4C3=O)nc(C(F)(F)F)c2)C1 [Compound 42, 2-(4-(((3S,5S)-3,5-Dimethylpiperidin-1-yl)methyl)-6-(trifluoromethyl)pyridin-2-yl)-6-(3-((4-methyl-4H-1,2,4-triazol-3-yl)methyl)oxetan-3-yl)isoindolin-1-one]
21 | 6.52 to 7.10 | 6.00 to 6.52 | Cn1cnnc1CC1(c2ccc3c(c2)C(=O)N(c2cc(CN4CCC5(CC4)CC5)cc(C(F)(F)F)n2)C3)COC1 [Compound 44, 2-(4-((6-Azaspiro[2.5]octan-6-yl)methyl)-6-(trifluoromethyl)pyridin-2-yl)-6-(3-((4-methyl-4H-1,2,4-triazol-3-yl)methyl)oxetan-3-yl)isoindolin-1-one]
22 | > 7.10 | > 6.52 | C[C@H]1C[C@H](C)CN(Cc2cc(Cl)nc(N3Cc4ccc(C5(Cc6nncn6C)COC5)cc4C3=O)c2)C1 [Compound 60, 2-(6-Chloro-4-(((3S,5S)-3,5-dimethylpiperidin-1-yl)methyl)pyridin-2-yl)-6-(3-((4-methyl-4H-1,2,4-triazol-3-yl)methyl)oxetan-3-yl)isoindolin-1-one]
